The supplement of paper PMC5908809

What was measured:
DERL-7 (IL-2 2.5 ng/mL) [1] = experiment: drug sensitivity score (DSS) (DSS units); higher = more sensitive; extreme values may be limits of the assay; details: 72 h
KHYG-1 (IL-2 2.5 ng/mL) [2] = experiment: as above; details: 72 h
YT (IL-2 2.5 ng/mL) [3] = experiment: as above; details: 72 h
NKL (IL-2 2.5 ng/mL) [4] = experiment: as above; details: 72 h
SNK-6 (IL-2 2.5 ng/mL) [5] = experiment: as above; details: 72 h
NK-YS (IL-2 2.5 ng/mL) [6] = experiment: as above; details: 72 h
[7] = tested on: normal primary NK cells, pool 3 (3 donors) (IL-2 2.5 ng/mL); experiment: as above; details: 72 h
[8] = tested on: normal primary NK cells, pool 1 (3 donors) (IL-2 2.5 ng/mL); experiment: as above; details: 72 h
[9] = tested on: normal primary NK cells, pool 1 (3 donors), resting (IL-2 0 ng/mL); experiment: as above; details: 72 h
IMC-1 (IL-2 20 ng/mL) [10] = experiment: as above; details: 72 h
NK-92 (IL-2 2.5 ng/mL) [11] = experiment: as above; details: 72 h
[12] = tested on: normal primary NK cells, pool 2 (3 donors) (IL-2 2.5 ng/mL); experiment: as above; details: 72 h
KAI3 (IL-2 2.5 ng/mL) [13] = experiment: as above; details: 72 h
[14] = tested on: normal NK cells expanded with K562-aAPC; experiment: percent inhibition of viability; higher = more inhibition; details: 72 h, IL-2 2.5 ng/mL
Procedure: (§1)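 Drug sensitivity and resistance testing on K562-aAPC-expanded normal NK cells: 5 concentrations (10-fold steps over a 10,000-fold range), 72 h at 37 °C, viability by CellTiter-Glo normalised to DMSO and benzethonium chloride controls; DSS from the fitted curve.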

DERL-7 (IL-2 2.5 ng/mL) [15] = experiment: as above; details: 72 h
KHYG-1 (IL-2 2.5 ng/mL) [16] = experiment: as above; details: 72 h
YT (IL-2 2.5 ng/mL) [17] = experiment: as above; details: 72 h
NKL (IL-2 2.5 ng/mL) [18] = experiment: as above; details: 72 h
SNK-6 (IL-2 2.5 ng/mL) [19] = experiment: as above; details: 72 h
NK-YS (IL-2 2.5 ng/mL) [20] = experiment: as above; details: 72 h
[21] = tested on: normal primary NK cells, pool 3 (3 donors) (IL-2 2.5 ng/mL); experiment: as above; details: 72 h
[22] = tested on: normal primary NK cells, pool 1 (3 donors) (IL-2 2.5 ng/mL); experiment: as above; details: 72 h
[23] = tested on: normal primary NK cells, pool 1 (3 donors), resting (IL-2 0 ng/mL); experiment: as above; details: 72 h
IMC-1 (IL-2 20 ng/mL) [24] = experiment: as above; details: 72 h
NK-92 (IL-2 2.5 ng/mL) [25] = experiment: as above; details: 72 h
[26] = tested on: normal primary NK cells, pool 2 (3 donors) (IL-2 2.5 ng/mL); experiment: as above; details: 72 h
KAI3 (IL-2 2.5 ng/mL) [27] = experiment: as above; details: 72 h
[28] = tested on: normal NK cells expanded with K562-aAPC; experiment: drug sensitivity score (DSS) (DSS units); higher = more sensitive; extreme values may be limits of the assay; details: 72 h; IL-2 2.5 ng/mL
Procedure: as §1

CCN(CC)CCOc1ccc(C(=C(Cl)c2ccccc2)c2ccccc2)cc1 [Clomifene] (max concentration tested 10000 nM)
Details | drug sensitivity score
DERL-7 (IL-2 2.5 ng/mL) [1] | 7.34
IMC-1 (IL-2 20 ng/mL) [10] | 5.71
KAI3 (IL-2 2.5 ng/mL) [13] | 8.38
KHYG-1 (IL-2 2.5 ng/mL) [2] | 6.7
NK-92 (IL-2 2.5 ng/mL) [11] | 8.7
NK-YS (IL-2 2.5 ng/mL) [6] | 3.68
NKL (IL-2 2.5 ng/mL) [4] | 6.51
SNK-6 (IL-2 2.5 ng/mL) [5] | 8.37
YT (IL-2 2.5 ng/mL) [3] | 5.67
[7] | 4.97
[8] | 5.98
[9] | 6.86
[12] | 6.93
[28] | 3.63

percent inhibition of viability [%]
Details | 1 nM | 10 nM | 100 nM | 1000 nM | 10000 nM
DERL-7 (IL-2 2.5 ng/mL) [15] | 4.06 | 0.91 | 9.39 | 20.4 | 79.7
IMC-1 (IL-2 20 ng/mL) [24] | -0.71 | -1.19 | 4.94 | 7.46 | 81.3
KAI3 (IL-2 2.5 ng/mL) [27] | 3.86 | 7.81 | 10.3 | 17.6 | 99.2
KHYG-1 (IL-2 2.5 ng/mL) [16] | 0.74 | -4.89 | 7.01 | 8.03 | 98
NK-92 (IL-2 2.5 ng/mL) [25] | -3.93 | -4.07 | 20.1 | 22.8 | 99.2
NK-YS (IL-2 2.5 ng/mL) [20] | -0.14 | 0.6 | 4.95 | 5.57 | 51.9
NKL (IL-2 2.5 ng/mL) [18] | 9.73 | -5.45 | 18.5 | 9.46 | 89.1
SNK-6 (IL-2 2.5 ng/mL) [19] | 23.4 | 4.68 | 23.5 | 22.9 | 96.8
YT (IL-2 2.5 ng/mL) [17] | 2.71 | -4.92 | 7.54 | 1.85 | 97.5
[14] | -4.27 | -4.95 | 6.21 | 5.94 | 49.9
[21] | 2.17 | 1.82 | -1.1 | 13.6 | 53.4
[22] | -14.7 | -1.65 | -8.5 | 6.72 | 89.3
[23] | -1.08 | 10.5 | -7.5 | 11 | 90.7
[26] | -3.18 | -2.06 | -0.72 | 14.9 | 80.9

Cn1cc(C2=C(c3cn(C4CCN(Cc5ccccn5)CC4)c4ccccc34)C(=O)NC2=O)c2ccccc21 [Enzastaurin] (max concentration tested 10000 nM)
Details | drug sensitivity score
DERL-7 (IL-2 2.5 ng/mL) [1] | 1.77
IMC-1 (IL-2 20 ng/mL) [10] | 3.17
KAI3 (IL-2 2.5 ng/mL) [13] | 0
KHYG-1 (IL-2 2.5 ng/mL) [2] | 2
NK-92 (IL-2 2.5 ng/mL) [11] | 0.06
NK-YS (IL-2 2.5 ng/mL) [6] | 0
NKL (IL-2 2.5 ng/mL) [4] | 0
SNK-6 (IL-2 2.5 ng/mL) [5] | 0.12
YT (IL-2 2.5 ng/mL) [3] | 0.24
[7] | 0.87
[8] | 0
[9] | 0
[12] | 0.55
[28] | 0

percent inhibition of viability [%]
Details | 1 nM | 10 nM | 100 nM | 1000 nM | 10000 nM
DERL-7 (IL-2 2.5 ng/mL) [15] | 1.51 | -3.14 | -1.37 | -1.66 | 38.9
IMC-1 (IL-2 20 ng/mL) [24] | -6.89 | 3.57 | 0.18 | 12 | 33.1
KAI3 (IL-2 2.5 ng/mL) [27] | -2.12 | 1.12 | -3.1 | -5.65 | 1.6
KHYG-1 (IL-2 2.5 ng/mL) [16] | 0.22 | 1.8 | 5.25 | 15.6 | 19
NK-92 (IL-2 2.5 ng/mL) [25] | 5.42 | 5.65 | -7.08 | -10.9 | 14.2
NK-YS (IL-2 2.5 ng/mL) [20] | 0.58 | 2.87 | 5.54 | 3.28 | 8.57
NKL (IL-2 2.5 ng/mL) [18] | -10.8 | -1.53 | 6.99 | 9.21 | 4.11
SNK-6 (IL-2 2.5 ng/mL) [19] | -2.07 | -1.57 | 11 | -2.69 | 14.5
YT (IL-2 2.5 ng/mL) [17] | 0.21 | 3.25 | 5.09 | 4.05 | 16.4
[14] | -2.11 | 0.83 | 0.77 | 6.44 | 4.35
[21] | -14.8 | -5.85 | 0.91 | -0.47 | 24.4
[22] | 2.52 | -11.7 | -6.73 | -14.6 | -7.58
[23] | 3.14 | -9.37 | -6.91 | -38.3 | -57.7
[26] | -9.8 | 0.84 | 10.8 | -7.31 | 23.3
